Data from PubChem BioAssay (NCI).
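Growth conditions: 96-well plates. Treatment: test compound, 48 hours, 5 concentrations. Analysis: linear interpolation between bracketing concentrations; unreached endpoints set to highest concentration. TGI denotes the concentration required for complete inhibition of growth.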

How the values were obtained:
Experiment in all cases: DTP human tumour cell line panel, 48 h
[1] = test system: 786-0 renal
[2] = test system: A498 renal
[3] = test system: A549 NSCLC
[4] = test system: ACHN renal
[5] = test system: BT-549 breast
[6] = test system: CAKI-1 renal
[7] = test system: CCRF-CEM leukemia
[8] = test system: COLO 205 colon
[9] = test system: DU-145 prostate
[10] = test system: EKVX NSCLC
[11] = test system: HCC-2998 colon
[12] = test system: HCT-116 colon
[13] = test system: HCT-15 colon
[14] = test system: HL-60(TB) leukemia
[15] = test system: HOP-62 NSCLC
[16] = test system: HOP-92 NSCLC
[17] = test system: HS 578T breast
[18] = test system: HT29 colon
[19] = test system: IGROV1 ovarian
[20] = test system: K-562 leukemia
[21] = test system: KM12 colon
[22] = test system: LOX IMVI melanoma
[23] = test system: M14 melanoma
[24] = test system: MALME-3M melanoma
[25] = test system: MCF7 breast
[26] = test system: MDA-MB-231 breast
[27] = test system: MDA-MB-435
[28] = test system: MDA-N
[29] = test system: MOLT-4 leukemia
[30] = test system: NCI-H226 lung
[31] = test system: NCI-H23 lung
[32] = test system: NCI-H460 lung
[33] = test system: NCI-H522 lung
[34] = test system: NCI/ADR-RES ovarian
[35] = test system: OVCAR-3 ovarian
[36] = test system: OVCAR-4 ovarian
[37] = test system: OVCAR-5 ovarian
[38] = test system: OVCAR-8 ovarian
[39] = test system: PC-3 prostate
[40] = test system: RPMI-8226 leukemia
[41] = test system: RXF 393 renal
[42] = test system: SF-268 CNS
[43] = test system: SF-295 CNS
[44] = test system: SF-539 CNS
[45] = test system: SK-MEL-2 melanoma
[46] = test system: SK-MEL-28 melanoma
[47] = test system: SK-MEL-5 melanoma
[48] = test system: SK-OV-3 ovarian
[49] = test system: SN12C renal
[50] = test system: SNB-19 CNS
[51] = test system: SNB-75 CNS
[52] = test system: SR leukemia
[53] = test system: SW-620 colon
[54] = test system: T-47D breast
[55] = test system: TK-10 renal
[56] = test system: U251 CNS
[57] = test system: UACC-257 melanoma
[58] = test system: UACC-62 melanoma
[59] = test system: UO-31 renal

## CCCCCCCCC[n+]1cccc(C2C(C(=O)OCC)=C(C)NC(C)=C2C(=O)OCC)c1
[1]
  TGI: 26.9 µM
[2]
  TGI: 38.6 µM
[3]
  TGI: 36.1 µM
[4]
  TGI: 28.5 µM
[5]
  TGI: 4.51 µM
[6]
  TGI: 28.2 µM
[7]
  TGI: 6.85 µM
[8]
  TGI: 8.06 µM
[9]
  TGI: 25.9 µM
[10]
  TGI: 27.8 µM
[11]
  TGI: 21.1 µM
[12]
  TGI: 30.5 µM
[13]
  TGI: 32.7 µM
[14]
  TGI: 6.25 µM
[15]
  TGI: 28.7 µM
[16]
  TGI: 6.52 µM
[17]
  TGI: 10.7 µM
[18]
  TGI: 11.7 µM
[19]
  TGI: 5.47 µM
[20]
  TGI: 43.7 µM
[21]
  TGI: 4.21 µM
[22]
  TGI: 9.34 µM
[23]
  TGI: 7.32 µM
[24]
  TGI: 4.67 µM
[25]
  TGI: 6.74 µM
[26]
  TGI: 10.9 µM
[27]
  TGI: 4.48 µM
[28]
  TGI: 4.39 µM
[29]
  TGI: 19.2 µM
[30]
  TGI: 28.7 µM
[31]
  TGI: 17.8 µM
[32]
  TGI: 19.3 µM
[33]
  TGI: 9.8 µM
[34]
  TGI: > 100 µM
[35]
  TGI: 11.8 µM
[36]
  TGI: 21.1 µM
[37]
  TGI: 24.6 µM
[38]
  TGI: 11.2 µM
[39]
  TGI: 15.2 µM
[40]
  TGI: 5.28 µM
[41]
  TGI: 5.94 µM
[42]
  TGI: 16.9 µM
[43]
  TGI: 33.9 µM
[44]
  TGI: 15.6 µM
[45]
  TGI: 3.29 µM
[46]
  TGI: 7.28 µM
[47]
  TGI: 3.8 µM
[48]
  TGI: 26.5 µM
[49]
  TGI: 17.5 µM
[50]
  TGI: 11.2 µM
[51]
  TGI: 11.6 µM
[52]
  TGI: > 25.3 µM
[53]
  TGI: 30.5 µM
[54]
  TGI: 20.3 µM
[55]
  TGI: 25.8 µM
[56]
  TGI: 12.6 µM
[57]
  TGI: 7.73 µM
[58]
  TGI: 3.54 µM
[59]
  TGI: 31.6 µM
